Source: doi:10.1101/2023.06.16.545261v2 (biorxiv, 2023)

How the values were obtained:
[1] = target: T1, SIRT7 (recombinant human SIRT7, non-tagged) (Homo sapiens, UniProt Q9NRC8); assay: fluorogenic deacylase assay; assay type: biochemical
T1 sequence (Q9NRC8 1-400): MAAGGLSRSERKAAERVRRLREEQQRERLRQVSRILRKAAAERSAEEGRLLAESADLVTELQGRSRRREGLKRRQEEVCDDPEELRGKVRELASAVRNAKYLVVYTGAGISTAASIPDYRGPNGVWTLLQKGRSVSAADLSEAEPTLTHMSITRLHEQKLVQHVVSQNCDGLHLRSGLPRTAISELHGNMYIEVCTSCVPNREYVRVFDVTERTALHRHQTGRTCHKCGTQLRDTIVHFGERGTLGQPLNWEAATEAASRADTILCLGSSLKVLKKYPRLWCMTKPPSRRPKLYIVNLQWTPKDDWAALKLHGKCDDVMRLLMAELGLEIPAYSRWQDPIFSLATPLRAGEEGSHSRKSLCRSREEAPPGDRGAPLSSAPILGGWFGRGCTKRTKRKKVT

[2] = target: T1, SIRT7 (recombinant human SIRT7, non-tagged); assay: fluorogenic deacylase assay; assay type: biochemical; conditions: read-out: % inhibition at 100 μM

Row | Structure (SMILES) | IC50 [1] [µM] | inhibition at 100 µM [2] [%]
1 | CCCCCCCCCCCCNC(=O)CCCCC[C@H](NC(=O)OCc1ccccc1)C(=O)N[C@H](C(=O)N[C@@H](CCC(=O)O)C(N)=O)C(C)C [compound 33, inverse amide 33] | 44 | –
2 | CCCCCCCCCCCCNC(=S)NCCCC[C@H](NC(=O)OCc1ccccc1)C(=O)N[C@@H](C)C(=O)N[C@@H](CCCNC(=N)N)C(N)=O [compound 3] | – | 26
3 | CCCCCCCCCCCCNC(=S)CCCCC[C@H](NC(=O)OCc1ccccc1)C(=O)N[C@H](C(=O)N[C@@H](CCC(=O)O)C(N)=O)C(C)C [compound 34, inverse thioamide 34] | 34 | –
